Experimental data published in patent US20070292351A1, “Assay for efficacy of histone deacetylase inhibitors” (Methylgene, Inc., priority 2006, published 2007).

Experiments:
[1] = tested on: human colon cancer HCT15 cells; assay: RT-PCR of MT3 transcription in HCT15 cells; format: cell-based; conditions: 16 hours, real-time RT-PCR normalized against beta-actin (FIG. 1)
Procedure: FIG. 1. […] HCT15 cells were treated with HDAC inhibitors or indicated compounds for 16 hours before total RNAs are isolated. RNA levels of MT3 were measured by real-time RT-PCR and are subsequently normalized against β-actin.
Colon cancer HCT15 cells were exposed to 1 μM MGCD0103 for various amounts of time, and MT3 RNA levels were monitored by conventional semi-quantitative RT-PCR. Maximal induction is achieved between 8 h and 24 h of exposure and maintained through 72 h.
RNA was extracted from 8×10^6 cells using the Qiagen RNeasy Mini kit (cat#74106, Qiagen, Missisauga Ont.) following the manufacturer's instructions. RT reaction was performed using the Expand Reverse Transcriptase kit from Roche (Cat#1 785 834 Roche Applied Biosciences, Laval, Que) with 1 μg total RNA together with 1 μl oligo(dT) primer (cat#y01212, Invitrogen-Canada, Burlington, Ont). cDNA was synthesized using an Eppendorf Mastercycler gradient PCR apparatus (Brinkmann Instruments Canada LTD., Mississauga, Ontario), using a two cycle protocol. For the 1st cycle reaction mixture (0.5 μl H2O, 4 μl of 5× Buffer, 2 μl DTT, 2 ul of 10 mM dNTPs, 0.5 μl RNAsin (cat#N211B, Promega, Fisher Scientific, Whitby, Ont.) and […] of the Expand Reverse Transcriptase (Cat#1785834, Roche, Laval, Quebec)) was incubated at 65° C. for 10 minutes and then set on ice. A second cycle was performed at 42° C. for 1 hour. The resulting cDNA products were kept at 4° C. until used.
One ul of the resulting cDNA was used for every amplification reaction with 18.9 ul H2O, 1.25 ul of 10 mM dNTPs, 0.5 ul of each primer pair, 2.5 ul of 10× Buffer. The PCR reaction was carried out in an Eppendorf Mastercycler gradient. The sequences of the primers used for the amplification of selected biomarkers, as well as the details of the PCR reaction cycles are featured below. All buffers came from Expand Long Template PCR system (Roche, Laval, Quebec, Cat#11681842001). All primers were synthesized by Invitrogen (Invitrogen-Canada, Burlington, Ont.)
Analysis of transcripts was performed using STORM 860 (Amersham Biosciences, Baie d'Urfe, Qubec). Transcription of genes was normalized to transcription of actin, which was performed in the same RT-PCR reaction. The relative expression level of gense was normalized to baseline signals.
Quantitative PCR with SYBR Green I detection with Mastercycler® ep realplex (Eppendorf) was performed using LightCycler® 480 SYBR Green I Master (Roche Diagnostics). SYBR Green I assays were performed with 600 nM primers. All other reaction conditions were as described by the manufacturer. Amplification conditions were 5 minutes of initial denaturation at 95° C., followed by 40 cycles of each 15 seconds at 95° C., 15 seconds at 63.4° C., 20 seconds at 68° C., a melting curve from 60° C. to 95° C. was recorded. Quantification was performed using Pfaffl method, a relative quantification method in real-time PCR (Nucleic Acids Research 2001 29:2002-2007). Primers were synthesized by Invitrogen (Invitrogen-Canada, Burlington, Ont.).

[2] = tested on: peripheral blast cells from AML patients; conditions: ex vivo treatment (Nebbioso et al. 2004); cited from earlier work

## O=C(CCCCCCC(=O)Nc1ccccc1)NO [SAHA]
[1]
  Induction of transcription of MT3: induced

## Nc1ccccc1NC(=O)c1ccc(CNC(=O)OCc2cccnc2)cc1 [MS-275]
[1]
  Induction of transcription of MT3: induced
[2]
  level of pro-apoptotic TRAIL expression: increase
